Data reported in the NIST ThermoML archive (doi:10.1016/j.jct.2011.10.014).
“And” between values parts separate entries of the source, which are not always exact repeats. Equal entries are not always repeated.

Assay: molar heat capacity at constant pressure
Details: 101.33 kPa, Crystal, Vacuum adiabatic calorimetry

O=C([O-])[O-].[Pb+2] [lead(II) carbonate]
Details	molar heat capacity at constant pressure
229.94 K	77.92 J/K/mol
230 K	77.94 J/K/mol
233.13 K	78.35 J/K/mol
236.26 K	78.83 J/K/mol
239.37 K	79.24 J/K/mol
240 K	79.27 J/K/mol
242.47 K	79.61 J/K/mol
245.56 K	79.93 J/K/mol
247.36 K	80.25 J/K/mol
247.44 K	80.03 J/K/mol
248.53 K	80.25 J/K/mol
248.62 K	80.46 J/K/mol
249.63 K	80.36 J/K/mol
250 K	80.62 J/K/mol
250.32 K	80.37 J/K/mol
250.72 K	80.4 J/K/mol
251.68 K	80.91 J/K/mol
251.81 K	80.67 J/K/mol
252.9 K	80.66 J/K/mol
253.25 K	80.99 J/K/mol
253.98 K	80.8 J/K/mol
254.73 K	81.2 J/K/mol
255.06 K	81.13 J/K/mol
255.71 K	81.1 J/K/mol
256.15 K	81.11 J/K/mol
256.2 K	81.29 J/K/mol
256.35 K	81.17 J/K/mol
257 K	81.19 J/K/mol
257.23 K	81.2 J/K/mol
257.66 K	81.19 J/K/mol
257.75 K	81.55 J/K/mol
258.31 K	81.42 J/K/mol
258.32 K	81.33 J/K/mol
258.97 K	81.78 J/K/mol
259.12 K	81.62 J/K/mol
259.4 K	81.47 J/K/mol
259.66 K	81.57 J/K/mol
260 K	81.98 J/K/mol
260.33 K	81.49 J/K/mol
260.47 K	81.78 J/K/mol
260.76 K	82.18 J/K/mol
260.93 K	82.3 J/K/mol
261 K	81.89 J/K/mol
261.55 K	81.78 J/K/mol
261.69 K	82.09 J/K/mol
262.03 K	82.18 J/K/mol
262.39 K	82.04 J/K/mol
262.62 K	82.88 J/K/mol
262.63 K	81.92 J/K/mol
263.17 K	81.79 J/K/mol
263.27 K	82.56 J/K/mol
263.7 K	82.23 J/K/mol
263.78 K	82.71 J/K/mol
263.85 K	82.12 J/K/mol
263.9 K	82.69 J/K/mol
264.53 K	82.15 J/K/mol
264.54 K	82.73 J/K/mol
264.79 K	82.47 J/K/mol
264.95 K	82.64 J/K/mol
265.18 K	82.86 J/K/mol
265.2 K	82.17 J/K/mol
265.82 K	82.91 J/K/mol
265.86 K	82.45 J/K/mol
265.88 K	82.3 J/K/mol
266.47 K	83.02 J/K/mol
266.56 K	82.66 J/K/mol
266.78 K	83.22 J/K/mol
266.94 K	82.58 J/K/mol
267.12 K	83.34 J/K/mol
267.27 K	82.4 J/K/mol
267.77 K	83.48 J/K/mol
267.85 K	83 J/K/mol
267.95 K	82.62 J/K/mol
268.01 K	82.76 J/K/mol
268.42 K	83.69 J/K/mol
268.63 K	82.71 J/K/mol
269.07 K	83.96 J/K/mol and 83 J/K/mol
269.31 K	82.9 J/K/mol
269.73 K	83.98 J/K/mol
269.75 K	84.22 J/K/mol
269.99 K	83.23 J/K/mol
270 K	83.33 J/K/mol
270.14 K	83.5 J/K/mol
270.38 K	84.12 J/K/mol
270.68 K	83.45 J/K/mol
270.74 K	83.86 J/K/mol
271.04 K	84.03 J/K/mol
271.2 K	83.78 J/K/mol
271.36 K	84.03 J/K/mol
271.7 K	84.69 J/K/mol
272.07 K	84.59 J/K/mol
272.26 K	84.68 J/K/mol
272.43 K	85.87 J/K/mol
272.67 K	88.34 J/K/mol
272.77 K	85.64 J/K/mol
273.1 K	94.33 J/K/mol
273.15 K	83.77 J/K/mol
273.3 K	90.01 J/K/mol
273.43 K	87.85 J/K/mol
273.58 K	87.5 J/K/mol
273.76 K	86.34 J/K/mol
274.21 K	85.21 J/K/mol
274.36 K	85.11 J/K/mol
274.43 K	85.57 J/K/mol
274.92 K	84.78 J/K/mol
275.09 K	85.53 J/K/mol
275.43 K	85.37 J/K/mol
275.61 K	85.08 J/K/mol
275.62 K	85.95 J/K/mol
275.76 K	86.02 J/K/mol
276.3 K	85.69 J/K/mol
276.44 K	86.06 J/K/mol
276.47 K	85.96 J/K/mol
276.49 K	86.54 J/K/mol
276.98 K	85.66 J/K/mol
277.13 K	85.86 J/K/mol
277.55 K	87.21 J/K/mol
277.67 K	85.56 J/K/mol
277.8 K	86.13 J/K/mol
278.35 K	85.61 J/K/mol
278.49 K	85.51 J/K/mol
278.57 K	85.33 J/K/mol
278.64 K	85.79 J/K/mol
279.04 K	84.8 J/K/mol
279.16 K	84.95 J/K/mol
279.34 K	85.02 J/K/mol
279.74 K	85.51 J/K/mol and 84.58 J/K/mol
279.84 K	84.46 J/K/mol
280 K	84.69 J/K/mol
280.48 K	84.25 J/K/mol
280.51 K	84.4 J/K/mol
280.87 K	84.45 J/K/mol
281.17 K	84.41 J/K/mol
281.18 K	84.61 J/K/mol
281.61 K	84.92 J/K/mol
281.86 K	84.62 J/K/mol
281.87 K	84.51 J/K/mol
282.22 K	84.71 J/K/mol
282.54 K	84.79 J/K/mol
283.3 K	84.95 J/K/mol
283.98 K	85.16 J/K/mol
284.55 K	85.29 J/K/mol
284.68 K	85.43 J/K/mol
285.39 K	85.19 J/K/mol
286.07 K	85.27 J/K/mol
286.75 K	85.41 J/K/mol
287.43 K	85.38 J/K/mol
287.49 K	85.63 J/K/mol
288.12 K	85.33 J/K/mol
288.8 K	85.51 J/K/mol
289.49 K	85.71 J/K/mol
290 K	86.01 J/K/mol
290.41 K	86 J/K/mol
293.33 K	86.4 J/K/mol
296.23 K	86.78 J/K/mol
298.15 K	87.07 J/K/mol
299.12 K	87.18 J/K/mol
300 K	87.3 J/K/mol
302 K	87.59 J/K/mol
304.88 K	87.95 J/K/mol
307.76 K	88.29 J/K/mol
310 K	88.56 J/K/mol
310.62 K	88.63 J/K/mol
313.49 K	89 J/K/mol
316.35 K	89.34 J/K/mol
320 K	89.76 J/K/mol
